# “Also recorded” adds a separate entry of the source. Non-standard residues stand in square brackets, D forms with d. No end group written: not given here. *: point of attachment. Lauroyl = CCCCCCCCCCCC(=O)*
# Columns and labels:
# [1] = Food intake of fasted mice after injection of peptide; format: in vivo, C57BL/6 mice
# Procedure: Animals: All animal procedures were approved by the British Home Office Animals (Scientific Procedures) Act 1986 (Project License number 70/5516). Male C57BL/6 mice and male Wistar rats were maintained in individual cages under controlled temperature (21-23 °C) with ad libitum access to standard chow (RM1 diet, SDS Ltd, Witham, Essex, UK) and to water. The light cycle was 14 hours light and 10 hours dark with 'dawn' at 07:00, lights full on at 07:30, 'dusk' at 21:00 with lights off at 21:30. These times were fixed in the animal facility.
# All animals were handled almost daily for on average nine days prior to the first study. During the acclimatization period, each animal received two saline injections at least two days apart in order to further acclimatize to the procedure on the study days.
# Intra-peritoneal (IP) injections: IP injections were administered to mice via a 0.5 ml syringe with a 29-gauge needle (maximum injection volume 0.1 ml). Maximum volume administered IP was 0.1 ml.
# Study protocol: C57BL/6 mice (20-35 g) were injected with the peptide under investigation following a 20-hour fast Wistar rats were injected following a 24-hour fast. A pre-weighed quantity of chow was presented immediately after injection. The remaining food was measured at regular time intervals (e.g. 1, 2, 3,4, 6, 8, 24 and 48 hours following injection) and food intake calculated.
# [2] = humans; intravenously infused; cited from earlier work
# [3] = humans; 1.8 mg sc three times daily for 28 days; cited from earlier work
# [4] = rats, cited from earlier work
# [5] = Example 1, 2700 nmol/kg, intervals 0-32 h after injection, vs saline and oxm
molecule,measurement,setting,value
"D-His1,Ala2,Lys33,Ala38,Ala39,Lys40-lauroyl-oxm(ex15-23)(ex27-33) ([dH]AQGTFTSDYSKYLEEEAVRLFIQWLKNGGPSKNNIAAAK(Lauroyl))",food intake,"[1]; Example 54, 10 nmol/kg",exception
"Oxyntomodulin (HSQGTFTSDYSKYLDSRRAQDFVQWLMNTKRNRNNIA) [oxm, 37 amino acid peptide member of the glucagon superfamily]",food intake,"[1]; Example 5, 2700nmol/kg, 0-4 h, vs oxm and saline",reduced food intake as expected
same,food intake,"[1]; Example 7, 1000 nmol/kg, 0-24 h",did not quite reach statistical significance
same,Multiples of food inhibition Factor,"[1]; Example 9, food intake during the first hour after injection, activity relative to oxm (1400 nmol/kg)",1
same,appetite,[2],effective appetite suppressant
same,body weight,[3],significant reduction of body weight
same,weight gain,[4]; chronic central administration,reduced weight gain
same,refeeding after a fast,[4]; intracerebroventricular and injection into paraventricular and arcuate nuclei,inhibits refeeding after a fast
same,body weight gain and adiposity,[4]; twice daily peripheral injections,reduced body weight gain and adiposity
oxm(xx15-21): human oxm with residues 15-21 replaced by corresponding exendin-4 residues (HSQGTFTSDYSKYLEEEAVRLFVQWLMNTKRNRNNIA),food intake,[1]; [5],greater and more prolonged appetite suppressant effect
oxm(xx15-18): human oxm with 4 amino acids at positions 15-18 replaced by substitute sequence (HSQGTFTSDYSKYLEEEAAQDFVQWLMNTKRNRNNIA),food intake,[1]; [5],increased and prolonged inhibition of food intake compared to both saline and oxm
"DHis2-Ser2-Asp3-oxm(ex15-23)(ex27-33)-Lys33-Ala38,39-Glu40,41-Lys42-Lauroyl ([dH]SDGTFTSDYSKYLEEEAVRLFIQWLKNGGPSKNNIAAAEEK(Lauroyl)) [23/104]",food intake,"[1]; Example 57, 6 or 20 nmol/kg",markedly decreased cumulative food intake in comparison to the saline control
oxm(xx15-24): human oxm with residues 15-24 replaced by corresponding exendin-4 residues (peptide) chain 1: HSQGTFTSDYSKYLEEEAVRLFIEWLMNTKRNRNNIA chain 2: HSQGTFTSDYSKYLEEEAVRLFIEWLMNTKRNRNNIA,food intake,[1]; [5],greater and more prolonged appetite suppressant effect; also recorded: more potent effect on feeding than oxm
same,food intake,"[1]; Example 2, 300 nmol/kg, 0-24 h, vs exendin 4 and saline",reduces food intake only slightly less than exendin over the first 8 hours post-injection
same,food intake,"[1]; Example 27, 100 nmol/kg",the most effective
oxm(xx27-33): oxm with residues 27 to 33 replaced by the sequence Lys Asn Gly Gly Pro Ser Ser (peptide) chain 1: HSQGTFTSDYSKYLDSRRAQDFVQWLKNGGPSSNNIA chain 2: HSQGTFTSDYSKYLDSRRAQDFVQWLKNGGPSSNNIA,food intake,"[1]; Example 3, 2700 nmol/kg, 0-24 h, vs oxm and saline",increased and prolonged inhibition of food intake compared to both saline and oxm
